According to patent US11572557B2, “Photoreversible acylation reagents” (The Board of Trustees of the Leland Stanford Junior …, priority 2018, dated 2023):

Experiments:
[1] = tested on: 105 nt F30 Broccoli aptamer; experiment: Broccoli aptamer folding / DFHBI fluorescence emission in vitro; assay type: biochemical; settings: RNA cloaked 4 h with 100 mM PCA in water, no light
Procedure: In this example, the ability of PCAs to control longer RNAs produced by transcription was tested. Photocontrolled aptamers have recently gained interest due to their potential for therapeutic and imaging applications, as exemplified by recent work by Langer and Kohane in which a 26nt nucleolin-binding aptamer for cancer targeting was reported (L. Li et al. Proc. Natl. Acad. Sci. 2014, 111, 17099-103, the disclosure of which is herein incorporated by reference; See also, M. C. Buff et al Nucleic Acids Res. 2009, 38, 2111-18; L. Qiu et al. J. Am. Chem. Soc. 2013, 135, 12952-55; A Heckel and G. Mayer J. Am. Chem. Soc. 2005, 12, 822-23; and A. Pinto et al. ACS Chem. Biol. 2012, 7, 360-66; the disclosure of which are herein incorporated by reference). […] Broccoli RNA folds into a compact tertiary structure, forming a binding site for the DFHBI dye, which results in a strong increase in fluorescence.
F-30 Broccoli DNA template (3 ng) (Table S1) was amplified by PCR (98° C. for 30 s; 30 times: 98° C. for 10 s, 61° C. for 30 s, 72° C. for 30 s; 72° C. for 5 min, 4° C. forever) using Phusion High-Fidelity PCR master Mix (NEB), and primers mix in 50 μL reaction, according to the NEB protocol. […] Fluorescent emission spectra were recorded on a Fluorolog 3-11 instrument (Jobin Yvon-SPEX), λex=450 nm at 25° C. […]

[2] = tested on: 34 nt hammerhead ribozyme RNA; experiment: Hammerhead ribozyme cleavage of Cy5-labeled substrate (urea PAGE); assay type: biochemical
Text: In this example, the ability of photocloaking to control the more complex function of a ribozyme RNA was examined. To form proper tertiary structure and initiate activity, RNA-cleaving ribozymes hybridize and bind metals (See Y Liu, T. J. Wilson, and D. M. J. Lilley Nat. Chem. Biol. 2017, 13, 508-13, the disclosure of which is herein incorporated by reference. Several examples of photocontrolled ribozymes have been reported previously (See S. G. Chaulk and A. M. MacMillan Nucleic Acids Res. 1998, 26, 3173-78; A. Nierth, M. Singer and A Jaschke Chem. Commun. (Camb). 2010, 46, 7975-77; D. D. Young and A. Dieters Bioorganic Med. Chem. Lett. 2006, 16, 2658-61; and S. G. Chaulk and A. M. MacMillan, 2007 cited supra; the disclosures of which are herein incorporated by reference), with the goal of studying ribozyme structure and folding. All prior studies, however, have been performed with modifications incorporated into RNAs during solid-phase synthesis. Thus, PCA 1 was tested whether it could be used to block a ribozyme in a single post-synthetic step, and subsequently phototrigger its activity. A 34 nt hammerhead ribozyme RNA (FIG. 18A; Seq. ID No. 5) was cloaked under standard conditions at room temperature and isolated from excess reagent and DMSO by precipitation. The cloaked ribozyme (200 nM) was then incubated with Cy5-labeled substrate (500 nM) in 50 mM Tris pH=6.0, 10 mM MgCl2 for 1 hour. The reaction was stopped by the addition of 8 M urea, 100 mM EDTA solution and then analyzed by urea PAGE (FIGS. 18B and 18C). […] The initial rates of substrate conversion were determined before and after cloaking (FIGS. 18D and 18E). […] After cloaking, the rate dropped 370-fold to 3.010^−3 min^−1, showing strong blocking of ribozyme function. […] Thus, ribozyme function can be robustly controlled by a direct photocloaking strategy.

12 nt DNA = experiment: Control incubation of analogous 12 nt DNA with PCA 1 (PAGE); settings: analogous 12 nt DNA incubated with PCA 1
[3] = tested on: F30-2xd Broccoli aptamer RNA in HeLa cells; experiment: Epifluorescence microscopy of HeLa cells transfected with 237 nt Broccoli aptamer RNA; assay type: cell-based, human
Procedure: In this example, the capability to use this photocloaking strategy to switch on RNA function in cells was assessed by transfecting a cloaked Broccoli RNA construct into human cells and then exposing cells to light was explored. For these experiments, a larger 237 nt RNA (Seq. ID No. 7) construct encoding two dimeric Broccoli aptamers was prepared. This construct is known to be stable in the intracellular medium (G. S. Filonoy et al. Chem. Biol. 2015, 22 (5), 649-60, the disclosure of which is herein incorporated by reference). Accordingly, F30-2xdB_2 DNA (100 pmol; Seq. ID No. 8) was 5′ adenylated using Mth Ligase (100 pmol, NEB) according to NEB's protocol. Mini Elute columns, and PNI Buffer (Qiagen) were used to clean up double stranded DNA samples according to manufacturer's instructions. ssDNAs F30-2xdB_2 (40 pmol) and F30-2xdB_1 (20 pmol) were ligated according to NEB description, using Thermostable 5′ App DNA/RNA Ligase (40 pmol, NEB). Ligated DNA was purified on DNA Clean&Concentrator 5 columns (Zymo Research) using Zymo's protocol. F-30 2xd Broccoli ssDNA template (3 ng) was amplified by PCR (98° C. for 30 s; 30 times: 98° C. for 10 s, 60° C. for 30 s, 72° C. for 30 s; 72° C. for 5 min, 4° C. forever) using Phusion High-Fidelity PCR master Mix (NEB), and primers mix in 50 μL reaction, according to the NEB protocol. […]

complementary DNA strand = experiment: Thermal denaturation (melting curve) of RNA template 1 annealed to complementary DNA; assay type: physicochemical; settings: duplex with complementary DNA, phosphate buffer pH=7.2, 100 mM NaCl, 300 nM
Procedure: Hybridization of untreated, cloaked, and uncloaked RNA was examined. Initial experiments measured the effect of photocloaking on thermal stability of a duplex. Untreated and cloaked RNA template 1 (Seq. ID No. 2) were annealed to its complementary DNA strand in phosphate buffer pH=7.2, 100 mM NaCl at 300 nM by heating the sample to 95° C. for 2 min and then cooling to room temperature. Melting curves were obtained by monitoring the absorbance at 260 nm of the nucleic acid solution while increasing the temperature at a rate of 1° C./min. Curves were smoothed by adjacent averaging.

[4] = tested on: complementary fluorogenic DNA (Q-STAR) probes; experiment: Nucleic acid-templated fluorogenic Q-STAR reaction (hybridization); assay type: biochemical
Procedure: To further test the effect of cloaking on hybridization, a nucleic acid-templated reaction was employed with complementary fluorogenic DNA (Q-STAR) probes (R. M. Franzini and E. T. Kool J. Am. Chem. Soc. 2009, 131, 16021-23; and W. A. Velema and E. T. Kool J. Am. Chem. Soc. 2017, 139, 5405-11; the disclosures of which are herein incorporated by reference). RNA template (untreated, cloaked or photo-uncloaked) was dissolved in 70 mM Tris-Borate buffer pH=7.0, 10 mM MgCl2 to a concentration of 200 nM. To this was added QSTAR probe (200 nM; Seq. ID No. 3) and TPP probe (400 nM; Seq. ID No. 4) and the fluorescence was monitored overtime at 25° C. on a Fluorolog 3-11 instrument (Jobin Yvon-SPEX). λex=497 nm and λem=519 nm. Plots were smoothed by adjacent averaging. […] After the cloaked RNA was exposed to light for up to an hour and subjected to the Q-STAR hybridization probes, a strong restoration of signal (82% of original) was observed (FIG. 17B), consistent with uncloaking at relatively high efficiency.

Q: With `COc1cc(COC(=O)n2ccnc2Cl)c([N+](=O)[O-])cc1OCCN(C)C` [PCA 1, 4-(2-(dimethylamino)ethoxy)-5-methoxy-2-nitrobenzyl 2-chloro-1H-imidazole-1-carboxylate] as the compound, how does the “Broccoli RNA fluorescence with DFHBI” value [1] read?
A: strong suppression of fluorescence

Q: What about the “drop of rate vs mock-treated ribozyme” value ([2]; after cloaking with PCA 1) of the same compound?
A: 370 fold

Q: What about the “initial rate of substrate conversion” value ([2]; cloaked RNA exposed to light) of the same compound?
A: 1.1 min⁻¹

Q: And the “ribozyme function after uncloaking” value ([2]; cloaked with PCA 1, after 365 nm light exposure)?
A: almost completely restored

Q: What about the “ribozyme activity (substrate cleavage)” value ([2]; ribozyme cloaked with PCA 1, 200 nM, substrate 500 nM, 1 hour) of the same compound?
A: almost complete abrogation of activity

Q: What about the “reaction with DNA” value (12 nt DNA) of the same compound?
A: < 5%

Q: Which “Broccoli RNA fluorescence with DFHBI” value [1] does the source give for `COc1cc(C(C)OC(=O)n2ccnc2Cl)c([N+](=O)[O-])cc1OCCN(C)C` (stereo not drawn) [PCA 2, 1-(4-(2-(dimethylamino)ethoxy)-5-methoxy-2-nitrophenyl)ethyl 2-chloro-1H-imidazole-1-carboxylate] here?
A: very dim fluorescence

Q: And the “fluorescence signal in cells” value ([3]; 237 nt RNA cloaked with PCA 2, HeLa cells, subsequent light exposure (30 minutes))?
A: emergence of a visible green fluorescence signal

Q: And the “fluorescence signal in cells” value ([3]; 237 nt RNA cloaked with PCA 2, transfected in HeLa cells, no light)?
A: no measurable signal above background

Q: “cloaked RNA template 1: RNA template 1 (Seq. ID No. 2, 5′ GCU CCC CAG CUU UCG C) acylated at 2′-OH with photocloaking groups (GCUCCCCAGCUUUCGC; RNA, backbone not given here; 2'-OH acylated with photocloaking groups, further chemistry not fully specified)” was tested. Which “difference in melting temperature vs untreated RNA strand” value (complementary DNA strand) did it give?
A: 10 °C

Q: What about the restoration of signal ([4]; cloaked RNA exposed to light for up to an hour) of the same compound?
A: 82 % of original

Q: And the “fluorogenic templated reaction signal” value ([4]; cloaked RNA template 200 nM, no light, 25° C.)?
A: 9 % of untreated RNA
